Here are results for 105 molecules from ChEMBL document CHEMBL3507680, “University of Dundee, Gates Library screen for HepG2 cell viability”.

SMILES strings stand for the structures.

This data set is described as follows: Human HepG2 cell viability assay in 384 well format. The class given is toxicity, cell-based. More on the design: dose 125 nL, time 70.5 hour; cytotoxicity at 70.5 h: concentration not given beside the values. Particulars: HepG2 cells, read-out: Inhibition.
Consider `O=C(NC1CCS(=O)(=O)C1)c1sccc1OC(F)F` (stereo not given), for which the cytotoxicity at 70.5 h came out at 0.608%.

Take `CN1CCN(C(=O)C2CCCc3[nH]ncc32)CC1` (stereo not given): the cytotoxicity at 70.5 h is -1.9%.

In the case of `Cc1ccc2c(c1)C(NCc1nnc3n1CCCCC3)CCCO2` (stereo not given), the cytotoxicity at 70.5 h amounted to 11.8%.

Turning to `Cc1cnc(NC(=O)N2CCOCC2)s1`, the cytotoxicity at 70.5 h was -2.62%.

For the molecule `Cc1cnc(NC(=O)N2CCCCCC2)s1`, the cytotoxicity at 70.5 h is -4.75%.

As to `CCN(CC(=O)NC(C)C)S(=O)(=O)N1CCCCC1C` (stereo not given), the cytotoxicity at 70.5 h is -3.14%.

Take `Cc1noc(C)c1CN1CCN(C(=O)CCn2cncn2)CC1`: the cytotoxicity at 70.5 h is -6%.

For `CSCC(C)(O)CNC(=O)c1ccc(F)cc1Br` (stereo not given), the cytotoxicity at 70.5 h was -4.95%.

In the case of `CN(Cc1noc(C2CC2)n1)CC1CCN(CCO)CC1`, the cytotoxicity at 70.5 h was determined as 14.4%.

As to `Cc1noc(CN(C)CC2CCN(CCO)CC2)n1`, the cytotoxicity at 70.5 h was determined as 5%.

Turning to `O=C(NCc1ccccc1CN1CCOCC1)c1ccc(Br)cc1F`, the cytotoxicity at 70.5 h came to 2.01%.

With `COc1ccc(C(CNC(=O)c2cnc(C)cn2)N2CCOCC2)cc1` (stereo not given), the cytotoxicity at 70.5 h was -3.63%.

`CN1CCN(Cc2ccccc2CNC(=O)c2ccc(Cl)cc2F)CC1`: the cytotoxicity at 70.5 h is 3.69%.

For the molecule `CN1CCN(Cc2ccccc2CNC(=O)c2cc(Br)ccc2F)CC1`, the cytotoxicity at 70.5 h came to 10.8%.

Regarding `Cc1ccccc1N1CCN(C(=O)c2cccnc2-n2cncn2)CC1`, the cytotoxicity at 70.5 h was -6.93%.

For the molecule `CC(C(=O)NCc1ccnc(OC2CCCC2)c1)n1cncn1` (stereo not given), the cytotoxicity at 70.5 h was -3.9%.

As for `N#Cc1cccnc1NCCNC(=O)N1CCSCC1`, the cytotoxicity at 70.5 h amounted to 9.49%.

Consider `N#Cc1cccnc1NCCNC(=O)N1CCCC(N2CCCC2)C1` (stereo not given), for which the cytotoxicity at 70.5 h was 10.7%.

As to `COc1ccccc1C1(CNc2nnc(C)c(C)c2C#N)CCOCC1`, the cytotoxicity at 70.5 h is -5.67%.

Regarding `CCN(CC)C(=O)CSc1ccc(C(F)(F)F)cn1`, the cytotoxicity at 70.5 h is -6.72%.

For `O=C(Cc1cccc(F)c1)NCCNCC1CNc2ccnn2C1` (stereo not given), the cytotoxicity at 70.5 h was 15.5%.

As for `CC(C)C(=O)NCc1ccnc(Oc2ccc(F)cc2)c1`, the cytotoxicity at 70.5 h is -5.04%.

`CCN1CCN(C(=O)c2ccnc(N(C)C)c2)CC1`: the cytotoxicity at 70.5 h was 3.26%.

On to `CC(NC(N)=O)C(=O)NCc1ccnc(Oc2ccc(F)cc2)c1` (stereo not given), for which the cytotoxicity at 70.5 h is -0.577%.

`CC(C)(C)c1noc(OCC(=O)NCC(F)(F)F)n1`: the cytotoxicity at 70.5 h was -0.303%.

On to `CC(C)(C)c1noc(OCC(=O)NC2CCCC2)n1`, for which the cytotoxicity at 70.5 h came out at 0.264%.

Turning to `CN(C)c1cccc(C(=O)NCC2(O)CCOCC2)c1`, the cytotoxicity at 70.5 h was -0.873%.

Turning to `Cc1nnc(NCC2(c3ccccc3)CCC2)c(C#N)c1C`, the cytotoxicity at 70.5 h came out at 2.86%.

Take `CCc1nnc(CN2CCN(C(C)=O)CC2)o1`: the cytotoxicity at 70.5 h is -1.65%.

Consider `COCC(=O)N1CCN(Cc2nnc(C(C)(C)C)o2)CC1`, for which the cytotoxicity at 70.5 h was -1.83%.

Turning to `CCC(C)C(=O)NCc1cccc(OCCN(C)C2CCOCC2)c1` (stereo not given), the cytotoxicity at 70.5 h was 16.4%.

For `O=C(c1cccnc1-n1cncn1)N1CCC(Nc2ccccc2)CC1`, the cytotoxicity at 70.5 h was -0.978%.

With `Cc1cnn(CC2CCCCN2CC(=O)N(C)Cc2ccc(C)o2)c1` (stereo not given), the cytotoxicity at 70.5 h is -2.13%.

On to `Cc1ccc(CN(C)C(=O)CN2CCCC2c2cnn(C)c2)o1` (stereo not given), for which the cytotoxicity at 70.5 h was found to be 16.6%.

In the case of `Cc1cnn(CC2CCCN2CC(=O)N(C)Cc2ccsc2)c1` (stereo not given), the cytotoxicity at 70.5 h is -2.74%.

On to `C=C(C)CNC1CCCN(Cc2noc(C3CC3)n2)C1` (stereo not given), for which the cytotoxicity at 70.5 h is -5.26%.

On to `C1CCC(CNC2CCCN(Cc3noc(C4CC4)n3)C2)C1` (stereo not given), for which the cytotoxicity at 70.5 h was -10.4%.

In the case of `CCC(NCc1ncc[nH]1)c1nc(C(F)(F)F)cs1` (stereo not given), the cytotoxicity at 70.5 h is -4.3%.

In the case of `O=C(NC1(c2nccs2)CCCC1)c1cc(C2CC2)on1`, the cytotoxicity at 70.5 h was -3.31%.

For `N#Cc1cc(Br)ccc1NC1CCN(CC(N)=O)CC1`, the cytotoxicity at 70.5 h was -2.02%.

Consider `N#Cc1c(N2CCN(CC3CCOC3)CC2)nc2ccccn12` (stereo not given), for which the cytotoxicity at 70.5 h is -1.45%.

Turning to `CC(C)N1CCC(Nc2ccn(Cc3ccccn3)n2)C1=O` (stereo not given), the cytotoxicity at 70.5 h is 1.71%.

For the molecule `COc1ccccc1C(=O)N1CCC(O)(c2cccc(C)c2C)CC1`, the cytotoxicity at 70.5 h amounted to 11.7%.

With `Cc1cnn(CC2CCCN2C(=O)c2sccc2C#N)c1` (stereo not given), the cytotoxicity at 70.5 h is -2.76%.

Consider `O=c1oc(-c2ccc(F)cc2)nn1CCc1ccncc1`, for which the cytotoxicity at 70.5 h was -9.83%.

Turning to `O=c1oc(-c2ccc(F)cc2)nn1CCS(=O)(=O)c1ccccc1`, the cytotoxicity at 70.5 h was -9.58%.

For `CC(=O)Nc1nc(C(=O)NCCOc2ccccc2)cs1`, the cytotoxicity at 70.5 h is -6.89%.

For the molecule `CC(=O)Nc1nc(C(=O)NCCOc2ccc(C)cc2)cs1`, the cytotoxicity at 70.5 h was 13.3%.

On to `CCOCc1ccccc1CNc1ccc2nncn2n1`, for which the cytotoxicity at 70.5 h is -5.87%.

As for `Cn1ccnc1COc1ccc(CSc2nnnn2C2CC2)cc1`, the cytotoxicity at 70.5 h is 6.53%.

For the molecule `NC(=O)Cn1ccc(NC(=O)C2(c3ccc(F)cc3)CC2)n1`, the cytotoxicity at 70.5 h was -11.2%.

Consider `Cc1ccc(CN(C)C(=O)CN2CCCC2c2cnn(C)c2)cc1` (stereo not given), for which the cytotoxicity at 70.5 h was -6.75%.

`O=C(CNc1ccc(F)cc1OCC(F)(F)F)NCc1ccco1`: the cytotoxicity at 70.5 h is -10.6%.

On to `CCOc1cc(C(=O)N(C)C)ccc1NC(=O)c1ccsc1`, for which the cytotoxicity at 70.5 h was -9.1%.

For the molecule `Cc1cc(CNC(=O)Cc2cccs2)ccc1S(C)(=O)=O`, the cytotoxicity at 70.5 h is 4.24%.

Regarding `Cc1cccc(OC2CCN(c3nccnc3C#N)CC2)n1`, the cytotoxicity at 70.5 h is 4.46%.

Regarding `Cc1cccc(OC2CCN(c3ccc(C#N)cn3)CC2)n1`, the cytotoxicity at 70.5 h is -1.77%.

On to `O=C(N1CCOCC1)N1CCN(c2ccnc3ccsc23)CC1`, for which the cytotoxicity at 70.5 h came out at 39.2%.

On to `CC1CCN(S(=O)(=O)N2CCn3cccc3C2C)CC1` (stereo not given), for which the cytotoxicity at 70.5 h is -4.61%.

Take `COCCn1cc(NCc2c[nH]nc2C(C)(C)C)cn1`: the cytotoxicity at 70.5 h is -4.3%.

As to `COCCn1cc(NCc2c[nH]nc2-c2ccc(OC)cc2)cn1`, the cytotoxicity at 70.5 h is -5.02%.

For `CN(c1ncnc2c1cnn2C)C1CCCN(c2cccnn2)C1` (stereo not given), the cytotoxicity at 70.5 h was determined as 0.765%.

`CN(c1ncnc2ccccc12)C1CCCN(c2cccnn2)C1` (stereo not given): the cytotoxicity at 70.5 h was -12.6%.

Regarding `C=C(C)CN(CC)Cc1nc(C)no1`, the cytotoxicity at 70.5 h was -6.47%.

Turning to `CCC(CC)C(CNC(=O)Nc1ccc(OC)cc1)N1CCOCC1` (stereo not given), the cytotoxicity at 70.5 h was -12.2%.

As to `CCn1c(C)cc(C(=O)NCc2cccc(NS(C)(=O)=O)c2)c1C`, the cytotoxicity at 70.5 h was 16.2%.

For `Cc1noc(C)c1CN(Cc1ccccc1)C(C)CN1CCOCC1` (stereo not given), the cytotoxicity at 70.5 h is -9.44%.

On to `O=S(=O)(C/C=C/c1ccccc1)Cc1nc(C2CC2)no1`, for which the cytotoxicity at 70.5 h is -11.4%.

For `CCC(CC)C(CNC(=O)Nc1cnn(CCOC)c1)N(C)C` (stereo not given), the cytotoxicity at 70.5 h was -8.7%.

On to `CC(CN1CCOCC1)N(Cc1ccccc1)Cc1ccncc1` (stereo not given), for which the cytotoxicity at 70.5 h was -6.88%.

`Cc1cc(C(=O)Nc2ccc(OC3CCOCC3)c(C)c2)[nH]n1`: the cytotoxicity at 70.5 h was -17.3%.

For the molecule `Cc1ccc(C(NC(=O)Cn2cc(C3CC3)nn2)C2CC2)cc1` (stereo not given), the cytotoxicity at 70.5 h is -7.56%.

On to `O=C(NCc1ncc[nH]1)c1c(F)cccc1I`, for which the cytotoxicity at 70.5 h amounted to 11.2%.

Turning to `Cc1ccccc1C(NC(=O)Cn1cc(C2CC2)nn1)C1CC1` (stereo not given), the cytotoxicity at 70.5 h is -3.63%.

`Cc1c(I)cccc1C(=O)NCc1nnc[nH]1`: the cytotoxicity at 70.5 h was -8.8%.

On to `CNC(=O)c1cccc(CNC(C)c2ccc(F)cc2N(C)C)c1` (stereo not given), for which the cytotoxicity at 70.5 h was -7.51%.

As for `Cc1n[nH]c(C)c1C1CCCN1C(=O)c1cc(Br)c[nH]1` (stereo not given), the cytotoxicity at 70.5 h worked out at 12.3%.

For the molecule `CCN(C(=O)c1cccc2c1OCO2)c1ccc(Br)cn1`, the cytotoxicity at 70.5 h was -7.06%.

For `NC(=O)c1cccc(CCNC(=O)N2Cc3ccccc3C2)c1`, the cytotoxicity at 70.5 h is -2.71%.

Turning to `Cc1oc(CN(C)C(=O)c2ccc(Br)cc2)cc1C(=O)O`, the cytotoxicity at 70.5 h was -8.74%.

Take `CNC(=O)c1cccc(CNC(C)c2cc(C)ccc2OC(F)F)c1` (stereo not given): the cytotoxicity at 70.5 h is -7.54%.

Turning to `Cc1noc(C)c1CN(Cc1ccccc1)C(C)C`, the cytotoxicity at 70.5 h worked out at 12.4%.

Turning to `Cc1n[nH]c(C)c1C1CCCN1C(=O)c1coc(Br)c1` (stereo not given), the cytotoxicity at 70.5 h is -5.01%.

With `CN(Cc1cccs1)C(=O)CNC1CCc2ncnn2C1` (stereo not given), the cytotoxicity at 70.5 h was -5.9%.

As for `C=C(C)CN(CC)Cc1nc(C(C)(C)C)no1`, the cytotoxicity at 70.5 h worked out at 10.8%.

On to `CC(C)N(CCNC(=O)c1ccc(S(=O)(=O)NC2CC2)cc1)C(C)C`, for which the cytotoxicity at 70.5 h stood at 25.6%.

In the case of `COc1ccc(NC(C)=O)cc1OCc1cccnc1`, the cytotoxicity at 70.5 h amounted to 29.5%.

`COc1ccc(NC(=O)C(C)(C)C)cc1OCc1cccnc1`: the cytotoxicity at 70.5 h was found to be 3.3%.

As for `CCC(CNC(=O)Cc1c(C)noc1C)N1CCCC1` (stereo not given), the cytotoxicity at 70.5 h was -6.77%.

On to `Cc1noc(C)c1CC(=O)NCC(CC(C)C)N1CCOCC1` (stereo not given), for which the cytotoxicity at 70.5 h was -4.86%.

With `Cc1noc(C)c1CC(=O)NCC(C)N1CCOCC1` (stereo not given), the cytotoxicity at 70.5 h is -2.99%.

`O=C(Nc1c(F)cccc1Oc1ccccc1)C1CCS(=O)(=O)C1` (stereo not given): the cytotoxicity at 70.5 h was -1.02%.

For the molecule `CCNC(=O)NC(=O)CN1CCOC(c2ccccc2Cl)C1` (stereo not given), the cytotoxicity at 70.5 h was -9.68%.

Regarding `CC(O)CCN(C)c1nc2ccccc2c(=O)[nH]1` (stereo not given), the cytotoxicity at 70.5 h is -6.49%.

For the molecule `COCCC1(CNC(=O)NCC2CCC2)CCC1`, the cytotoxicity at 70.5 h was -0.0221%.

On to `Cc1csc(CN2CC(CO)Oc3ccccc32)n1` (stereo not given), for which the cytotoxicity at 70.5 h amounted to 7.51%.

Consider `CN(CCC(F)(F)F)c1nc2ccccc2c(=O)[nH]1`, for which the cytotoxicity at 70.5 h was 0.426%.

Take `Cc1cc(-n2cncn2)ccc1C(=O)Nc1ccc(N2CCCC2)cn1`: the cytotoxicity at 70.5 h is -1.24%.

Take `CC(C)Cn1cc(NC(=O)N2CCOC(c3ccccc3)C2)cn1` (stereo not given): the cytotoxicity at 70.5 h was -4.35%.

Regarding `CC(C)(C)C(=O)N1CCN(C(=O)Nc2cnn(CC(F)F)c2)CC1`, the cytotoxicity at 70.5 h was -7.22%.

As for `COCCC1(CNC(=O)NCC2CCCN(C)C2)CCC1` (stereo not given), the cytotoxicity at 70.5 h was -12%.

For the molecule `O=C(CCN1CCCCCC1c1ccco1)N1CCOCC1` (stereo not given), the cytotoxicity at 70.5 h is -9.92%.

For the molecule `CC(C)c1nc(C2CCCN2CCN2CCCCC2)no1` (stereo not given), the cytotoxicity at 70.5 h is -5.16%.

Consider `CC(C)N(Cc1ccccn1)C(=O)CN(C)C(=O)c1cccs1`, for which the cytotoxicity at 70.5 h was -22.7%.

As for `Cc1ccc(Oc2cc(CN)ccn2)cc1C`, the cytotoxicity at 70.5 h is -22.3%.
